Reference: ChEMBL document CHEMBL1201862, “PubChem BioAssay data set” (2004)
The source made the active and inactive calls.

Columns and labels:
[1] = molecular target: T1, Short transient receptor potential channel 4 (Mus musculus, UniProt Q9QUQ5); assay: mouse TRPC4 channel activators, dose response, cell-based, HEK293 TRPC4/mu-opioid, Fluo-4 calcium (AID 434937); format: functional
T1 sequence (Q9QUQ5 whole entry): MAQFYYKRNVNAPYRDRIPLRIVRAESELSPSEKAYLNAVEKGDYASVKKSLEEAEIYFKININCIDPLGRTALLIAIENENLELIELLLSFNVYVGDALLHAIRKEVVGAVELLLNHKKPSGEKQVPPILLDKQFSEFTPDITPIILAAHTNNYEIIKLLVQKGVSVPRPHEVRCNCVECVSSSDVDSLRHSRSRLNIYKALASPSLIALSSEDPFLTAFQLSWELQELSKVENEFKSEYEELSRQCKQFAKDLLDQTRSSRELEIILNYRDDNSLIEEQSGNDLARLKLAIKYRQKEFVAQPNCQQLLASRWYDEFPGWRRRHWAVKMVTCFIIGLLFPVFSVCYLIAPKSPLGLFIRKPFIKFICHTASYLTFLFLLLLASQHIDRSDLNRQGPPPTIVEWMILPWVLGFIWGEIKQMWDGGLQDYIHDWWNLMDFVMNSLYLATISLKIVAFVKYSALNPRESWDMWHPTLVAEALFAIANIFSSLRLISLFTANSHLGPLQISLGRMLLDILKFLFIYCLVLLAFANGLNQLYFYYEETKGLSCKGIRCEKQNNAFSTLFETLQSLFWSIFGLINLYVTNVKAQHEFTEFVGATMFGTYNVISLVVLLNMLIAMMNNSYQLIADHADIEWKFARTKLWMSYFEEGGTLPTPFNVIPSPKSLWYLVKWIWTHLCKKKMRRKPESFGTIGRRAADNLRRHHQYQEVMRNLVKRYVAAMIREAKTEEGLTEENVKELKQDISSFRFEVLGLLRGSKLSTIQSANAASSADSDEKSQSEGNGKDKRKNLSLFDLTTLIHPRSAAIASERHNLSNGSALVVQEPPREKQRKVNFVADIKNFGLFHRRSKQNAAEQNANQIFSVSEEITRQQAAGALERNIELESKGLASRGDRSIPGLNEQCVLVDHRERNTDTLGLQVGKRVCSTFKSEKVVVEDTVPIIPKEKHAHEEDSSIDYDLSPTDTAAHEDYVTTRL

SUMO-activating enzyme = SUMO-activating enzyme (Homo sapiens, UniProt Q9UBT2); assay: SUMOylation inhibitor hit validation, confirmation, SUMOylation inhibitor project, biochemical, AlphaScreen (AID 2018); format: functional
Chain of SUMO-activating enzyme (Q9UBE0 whole entry): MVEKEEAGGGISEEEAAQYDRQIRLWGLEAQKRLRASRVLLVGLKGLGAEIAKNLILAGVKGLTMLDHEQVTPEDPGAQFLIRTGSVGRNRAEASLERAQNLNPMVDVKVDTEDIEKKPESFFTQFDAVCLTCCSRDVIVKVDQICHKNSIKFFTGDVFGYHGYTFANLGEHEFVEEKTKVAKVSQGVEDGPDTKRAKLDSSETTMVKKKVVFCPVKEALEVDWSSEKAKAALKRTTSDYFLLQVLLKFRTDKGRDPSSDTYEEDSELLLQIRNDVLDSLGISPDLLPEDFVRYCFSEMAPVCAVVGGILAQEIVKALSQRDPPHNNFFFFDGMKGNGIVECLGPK
Chain of SUMO-activating enzyme (Q9UBT2 whole entry): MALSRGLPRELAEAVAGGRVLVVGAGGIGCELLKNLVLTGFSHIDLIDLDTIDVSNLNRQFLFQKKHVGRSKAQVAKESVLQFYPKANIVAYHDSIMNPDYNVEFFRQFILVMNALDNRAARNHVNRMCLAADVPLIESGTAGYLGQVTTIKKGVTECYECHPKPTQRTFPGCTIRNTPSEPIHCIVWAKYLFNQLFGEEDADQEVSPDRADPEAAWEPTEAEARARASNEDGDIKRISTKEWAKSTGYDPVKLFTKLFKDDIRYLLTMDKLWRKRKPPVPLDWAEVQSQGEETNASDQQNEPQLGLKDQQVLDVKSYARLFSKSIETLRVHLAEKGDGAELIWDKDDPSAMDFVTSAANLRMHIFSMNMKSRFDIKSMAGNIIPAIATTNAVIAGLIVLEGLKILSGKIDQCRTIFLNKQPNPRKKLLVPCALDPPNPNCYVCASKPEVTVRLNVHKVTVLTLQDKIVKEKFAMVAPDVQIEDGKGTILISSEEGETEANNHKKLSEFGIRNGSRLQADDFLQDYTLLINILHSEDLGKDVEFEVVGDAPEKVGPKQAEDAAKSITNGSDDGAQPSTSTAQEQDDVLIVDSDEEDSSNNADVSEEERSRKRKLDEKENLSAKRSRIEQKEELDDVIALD

Estrogen receptor = molecular target: T2, Estrogen receptor (Homo sapiens, UniProt P03372);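 also: potency for inhibiting coactivator peptide recruitment to the receptor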
T2 sequence (P03372 whole entry): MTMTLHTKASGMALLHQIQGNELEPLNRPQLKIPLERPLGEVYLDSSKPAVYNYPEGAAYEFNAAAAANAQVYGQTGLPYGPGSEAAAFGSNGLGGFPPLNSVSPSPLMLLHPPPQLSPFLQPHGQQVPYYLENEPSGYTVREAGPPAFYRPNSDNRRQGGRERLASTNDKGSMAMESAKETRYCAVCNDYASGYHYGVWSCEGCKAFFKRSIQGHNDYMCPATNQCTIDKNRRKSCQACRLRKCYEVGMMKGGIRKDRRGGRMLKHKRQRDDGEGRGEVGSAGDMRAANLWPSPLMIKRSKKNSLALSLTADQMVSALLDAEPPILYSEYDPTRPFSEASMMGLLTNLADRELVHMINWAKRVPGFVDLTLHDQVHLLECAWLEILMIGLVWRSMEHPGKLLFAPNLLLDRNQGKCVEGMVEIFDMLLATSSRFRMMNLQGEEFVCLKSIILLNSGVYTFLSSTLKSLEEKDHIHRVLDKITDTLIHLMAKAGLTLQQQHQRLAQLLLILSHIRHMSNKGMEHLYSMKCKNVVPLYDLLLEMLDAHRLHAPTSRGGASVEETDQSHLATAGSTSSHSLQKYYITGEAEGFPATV

[2] = cytotoxicity in KRAS-transformed pancreatic duct cells, primary screen, cell-based, fluorescence, HTS (AID 431); format: functional; conditions: Homo sapiens;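 also: cell line used: HPDE-C7K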
[3] = molecular target: Peroxisome proliferator-activated receptor gamma/Nuclear receptor coactivator 3 (Homo sapiens, UniProt P37231); assay: TR-FRET dose response biochemical High Throughput Screening assay for agonists of the steroid receptor coactivator 3 (SRC-3) recruitment by the peroxisome proliferator-activated receptor gamma (PPAR gamma): non-selective agonists. [Related pubchem assays: 1301 (Confirmation screen.), 1048 (Primary screen.)]; format: functional
Chain of Peroxisome proliferator-activated receptor gamma/Nuclear receptor coactivator 3 (P37231 whole entry): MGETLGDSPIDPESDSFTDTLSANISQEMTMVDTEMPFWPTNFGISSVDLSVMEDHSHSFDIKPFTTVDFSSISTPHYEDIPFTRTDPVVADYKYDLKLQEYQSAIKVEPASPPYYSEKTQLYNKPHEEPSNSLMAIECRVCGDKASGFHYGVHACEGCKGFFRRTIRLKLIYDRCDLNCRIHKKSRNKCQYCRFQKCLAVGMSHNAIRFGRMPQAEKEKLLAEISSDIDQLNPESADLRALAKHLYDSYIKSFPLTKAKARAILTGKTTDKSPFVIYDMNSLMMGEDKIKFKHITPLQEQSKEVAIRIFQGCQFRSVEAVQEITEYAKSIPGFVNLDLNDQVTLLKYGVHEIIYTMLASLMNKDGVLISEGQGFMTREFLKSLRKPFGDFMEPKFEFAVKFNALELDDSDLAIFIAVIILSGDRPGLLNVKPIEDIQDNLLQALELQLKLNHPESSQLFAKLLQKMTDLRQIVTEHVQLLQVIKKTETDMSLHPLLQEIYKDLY
Chain of Peroxisome proliferator-activated receptor gamma/Nuclear receptor coactivator 3 (Q9Y6Q9 whole entry, further chain): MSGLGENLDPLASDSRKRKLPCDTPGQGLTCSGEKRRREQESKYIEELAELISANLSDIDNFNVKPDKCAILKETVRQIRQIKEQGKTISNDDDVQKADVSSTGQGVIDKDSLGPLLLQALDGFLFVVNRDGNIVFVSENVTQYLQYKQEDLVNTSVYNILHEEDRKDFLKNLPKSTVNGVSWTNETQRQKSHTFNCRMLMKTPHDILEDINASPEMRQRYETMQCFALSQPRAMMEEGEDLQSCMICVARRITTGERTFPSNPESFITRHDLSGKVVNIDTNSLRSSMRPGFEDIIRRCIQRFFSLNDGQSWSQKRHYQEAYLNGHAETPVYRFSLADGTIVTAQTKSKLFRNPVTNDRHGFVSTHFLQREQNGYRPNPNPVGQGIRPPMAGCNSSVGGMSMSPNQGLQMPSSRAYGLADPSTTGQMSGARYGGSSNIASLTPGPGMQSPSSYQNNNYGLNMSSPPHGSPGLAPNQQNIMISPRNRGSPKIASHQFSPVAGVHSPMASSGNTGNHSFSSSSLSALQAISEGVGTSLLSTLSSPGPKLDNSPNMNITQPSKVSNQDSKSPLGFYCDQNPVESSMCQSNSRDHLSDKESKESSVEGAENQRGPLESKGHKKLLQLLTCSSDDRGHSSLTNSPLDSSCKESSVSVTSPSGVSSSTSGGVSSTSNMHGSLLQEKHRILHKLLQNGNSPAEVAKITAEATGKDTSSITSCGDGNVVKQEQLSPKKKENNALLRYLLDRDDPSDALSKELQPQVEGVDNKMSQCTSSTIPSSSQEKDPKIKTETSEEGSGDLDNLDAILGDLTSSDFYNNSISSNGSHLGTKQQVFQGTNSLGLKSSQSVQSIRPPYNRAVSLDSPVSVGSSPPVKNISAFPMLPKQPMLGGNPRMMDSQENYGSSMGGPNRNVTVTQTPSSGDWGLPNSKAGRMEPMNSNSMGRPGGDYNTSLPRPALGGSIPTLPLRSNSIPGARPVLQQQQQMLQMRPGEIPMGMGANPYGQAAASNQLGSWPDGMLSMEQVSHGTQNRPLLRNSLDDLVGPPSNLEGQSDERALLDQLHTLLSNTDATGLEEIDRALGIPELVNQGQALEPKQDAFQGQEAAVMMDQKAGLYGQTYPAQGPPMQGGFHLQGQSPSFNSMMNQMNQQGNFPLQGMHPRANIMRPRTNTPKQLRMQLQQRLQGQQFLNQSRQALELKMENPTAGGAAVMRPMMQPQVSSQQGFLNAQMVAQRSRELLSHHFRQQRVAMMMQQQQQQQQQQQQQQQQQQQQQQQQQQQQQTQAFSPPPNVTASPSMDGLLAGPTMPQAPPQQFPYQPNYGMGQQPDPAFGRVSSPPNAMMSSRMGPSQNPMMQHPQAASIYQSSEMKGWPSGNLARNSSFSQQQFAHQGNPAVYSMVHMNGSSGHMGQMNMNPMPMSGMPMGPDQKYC

[4] = molecular target: Peroxisome proliferator-activated receptor gamma/Nuclear receptor coactivator 2 (Homo sapiens, UniProt P37231); assay: (§1) TR-FRET dose response biochemical High Throughput Screening assay for agonists of the steroid receptor coactivator 2 (SRC-2) recruitment by the peroxisome proliferator-activated receptor gamma (PPAR gamma): non-selective agonists. [Related pubchem assays: 1297, 1032 ]; format: functional
Chain of Peroxisome proliferator-activated receptor gamma/Nuclear receptor coactivator 2 (P37231 whole entry): as the sequence (P37231 whole entry) above
Chain of Peroxisome proliferator-activated receptor gamma/Nuclear receptor coactivator 2 (Q15596 whole entry, further chain): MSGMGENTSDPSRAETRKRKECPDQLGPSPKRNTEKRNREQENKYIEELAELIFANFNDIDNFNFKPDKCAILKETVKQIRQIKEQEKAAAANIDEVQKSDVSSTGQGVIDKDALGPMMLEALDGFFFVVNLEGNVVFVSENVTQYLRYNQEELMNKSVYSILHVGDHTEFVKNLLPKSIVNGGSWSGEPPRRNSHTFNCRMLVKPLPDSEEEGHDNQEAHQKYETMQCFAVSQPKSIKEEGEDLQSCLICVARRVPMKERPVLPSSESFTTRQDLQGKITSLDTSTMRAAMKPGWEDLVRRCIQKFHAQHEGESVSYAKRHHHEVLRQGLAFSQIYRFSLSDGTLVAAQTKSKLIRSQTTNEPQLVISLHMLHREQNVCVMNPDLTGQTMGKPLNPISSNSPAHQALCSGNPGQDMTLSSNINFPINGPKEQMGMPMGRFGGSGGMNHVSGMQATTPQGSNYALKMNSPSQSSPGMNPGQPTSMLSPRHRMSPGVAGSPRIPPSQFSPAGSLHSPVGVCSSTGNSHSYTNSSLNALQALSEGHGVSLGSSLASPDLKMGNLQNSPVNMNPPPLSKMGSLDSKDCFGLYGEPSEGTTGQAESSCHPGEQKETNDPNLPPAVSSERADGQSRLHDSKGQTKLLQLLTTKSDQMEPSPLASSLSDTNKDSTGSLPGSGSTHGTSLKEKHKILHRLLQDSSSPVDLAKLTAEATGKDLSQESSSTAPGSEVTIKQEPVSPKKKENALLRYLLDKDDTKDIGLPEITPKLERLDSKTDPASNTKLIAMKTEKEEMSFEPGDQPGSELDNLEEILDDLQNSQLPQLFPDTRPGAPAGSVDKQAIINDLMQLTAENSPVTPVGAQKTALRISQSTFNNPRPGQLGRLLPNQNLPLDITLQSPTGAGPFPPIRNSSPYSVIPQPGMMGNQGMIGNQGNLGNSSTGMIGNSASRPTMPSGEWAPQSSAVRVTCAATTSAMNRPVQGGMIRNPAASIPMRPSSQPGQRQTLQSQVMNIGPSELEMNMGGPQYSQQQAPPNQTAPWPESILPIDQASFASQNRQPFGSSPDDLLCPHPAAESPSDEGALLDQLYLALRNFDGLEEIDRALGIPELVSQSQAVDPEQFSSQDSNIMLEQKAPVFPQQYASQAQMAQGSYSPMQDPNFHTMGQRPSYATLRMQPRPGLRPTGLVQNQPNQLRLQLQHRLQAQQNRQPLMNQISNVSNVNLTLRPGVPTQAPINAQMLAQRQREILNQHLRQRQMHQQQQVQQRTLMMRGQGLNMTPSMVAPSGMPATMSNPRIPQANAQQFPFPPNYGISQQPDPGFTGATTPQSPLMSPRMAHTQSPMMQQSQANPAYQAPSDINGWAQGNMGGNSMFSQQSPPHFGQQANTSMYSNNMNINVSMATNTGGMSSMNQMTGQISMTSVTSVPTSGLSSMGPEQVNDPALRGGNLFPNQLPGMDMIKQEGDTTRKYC

[5] = molecular target: Peroxisome proliferator-activated receptor gamma/Nuclear receptor coactivator 1 (Homo sapiens, UniProt P37231); assay: as §1, with “1 (SRC-1)” for “2 (SRC-2)”, “assays (depositor defined):AID1300, AID1808, AID504735, AID631]” for “assays: 1297, 1032 ]”; format: protein assay
[6] = cytotoxicity in HPDE-C7 cells, cell-based, fluorescence, HTS (AID 430); format: functional; conditions: Homo sapiens

Compound: Cc1cccc(C(=O)NC(=S)NNC(=O)c2cccs2)c1
- EC50 [1]: 2.99 µM (active)

Compound: CCOc1cccc2cc(-c3nnc(NCc4ccco4)s3)c(=O)oc12
- IC50 (SUMO-activating enzyme): 45.7 µM (active)
- IC50 (Estrogen receptor): 26.8 µM (active)

Compound: COc1ccc2c(c1O)C13CCN(C)C(C2)C1CCC(=O)C3 (centres undefined)
- EC50 [1]: 0.168 µM (active)

Compound: CCn1c2c(c3cc(Br)ccc31)CCC/C2=N\O
- EC50 [2]: 10.8 µM (active)
- EC50 [3]: > 79.4 µM (not active)
- EC50 [4]: 25.7 µM (not active)
- EC50 [5]: > 79.4 µM (inactive)
- EC50 [6]: 10.8 µM (active)
